Values quoted from earlier work in US20240398764A1, “METHODS OF TREATING DISEASES ASSOCIATED WITH SENESCENT CELL ACCUMULATION” (University of Florida Research Foundation, Incorporated, priority 2021, published 2024).

Columns and labels:
[1] = system: platelets; details: literature statement; cited from earlier work
[2] = system: SnCs; details: vs ABT263; cited from earlier work
[3] = system: platelets; details: vs ABT263; cited from earlier work

| Structure (SMILES) | Platelet apoptosis / thrombocytopenia [1] | Potency against SnCs compared with ABT263 [2] | Toxicity to platelets compared with ABT263 [3] |
| --- | --- | --- | --- |
| CC1(C)CCC(CN2CCN(c3ccc(C(=O)NS(=O)(=O)c4ccc(NCC5CCOCC5)c([N+](=O)[O-])c4)c(Oc4cnc5[nH]ccc5c4)c3)CC2)=C(c2ccc(Cl)cc2)C1 [ABT199] | does not induce thrombocytopenia | – | – |
| CC1(C)CCC(c2ccc(Cl)cc2)=C(CN2CCN(c3ccc(C(=O)NS(=O)(=O)c4ccc(N[C@H](CCN5CCOCC5)CSc5ccccc5)c(S(=O)(=O)C(F)(F)F)c4)cc3)CC2)C1 [ABT263] | induces platelet apoptosis and results in severe thrombocytopenia | – | – |
| CC1(C)CCC(c2ccc(Cl)cc2)=C(CN2CCN(c3ccc(C(=O)NS(=O)(=O)c4ccc(N[C@H](CCN5CCN(C(=O)CCCn6cc(COCCOCCNc7cccc8c7C(=O)N(C7CCC(=O)NC7=O)C8=O)nn6)CC5)CSc5ccccc5)c(S(=O)(=O)C(F)(F)F)c4)cc3)CC2)C1 (stereo partly shown) [PZ15227] | – | equally or slightly more potent against SnCs | less toxic to platelets |
